Measurements: patent publication US20070042947A1, “Agents for preventing and/or treating uppper digestive tract disorders” (Takeda Pharmaceutical Company Limited, priority 2003, published 2007)

Assays:
Wistar male rats = assay: Gastric acid secretion in anesthetized rat by intravenous injection of hNPW23 (stomach perfusion, NaOH titration); assay type: in vivo; details: 80 μM in saline, 1 ml/h for 30 minutes through the femoral vein; mean±SE, 8 rats; P 0.01 or less vs control
Description: After Wistar male rats (Nippon Charles River, weighing 320-360 g) were fasted for 16 hours with water given ad libitum, the animal was injected intraperitoneally with ethyl carbamate (Wako Pure Chemical) (1.0 g/ml/kg) and firmly secured to the operating table under anesthesia to perform laparotomy. Stomach catheter (Medtop X2-50, 3.5 mm in outer diameter and […] in inner diameter) was inserted into the stomach (2 cm) through an incision in the duodenum. After ligature at the pyloric canal, the right femoral vein was isolated to perform venous cannulation. The stomach was irrigated with distilled water (Otsuka Pharmaceutical Co., Ltd.) warmed at 37° C. and allowed to stand for about an hour. hNPW23 was dissolved in saline (Otsuka Pharmaceutical Co., Ltd.) to become 80 μM. The control group was given saline. […] Gastric acid output was determined as follows. […] After 30 μl of Bromthymol Blue indicator solution (BTB, Wako Pure Chemical) was added to each gastric juice collected, the mixture was titrated with 0.1N NaOH solution and the consumed amount of NaOH required to reach the equivalent point (the amount consumed) was determined to calculate the gastric acid output. The gastric acid output before administration of hNPW23 was measured and T-assay was conducted on a percentage (%) of changes in gastric acid outputs before and after administration. […]

pylorus ligated rats [1] = assay: Gastric fluid volume, pH, gastric acidity and acid output in pylorus ligated rats; assay type: in vivo, rat; details: 2 mg/kg intraperitoneally; 3 hours after pylorus ligature; mean ± SE, 8 rats
Description: After Wistar male rats (340-360 g) were fasted for 16 hours with water given ad libitum, the animal was exposed at laparotomy under ether anesthesia and submitted to the pylorus ligature assay to close the abdomen. After hNPW23 was dissolved in saline (2 mg/ml), the solution was intraperitoneally injected (2 mg/kg). The control group was given saline. Test was performed with 8 rats in each group. Three hours after the pylorus ligature, the rat's abdomen was opened under anesthesia with Nembutal (40 mg/kg, Dainippon Pharmaceutical). After ligation of the cardia, the stomach was removed. Gastric contents were collected and centrifuged (2500 rpm×10 min.). Using the supernatant, gastric fluid volume (ml), pH intragastric pH, gastric acidity (mEq/l) and total acid output (μEq/kg/h) were measured.
To 1 ml of gastric juice, 30 μl of BTB (Wako Pure Chemical) solution was added and […] NaOH solution was dropwise added to the mixture. The consumed amount of NaOH required to reach the equivalent point (pH 7.0) was measured to calculate the gastric acidity and total acid output.
The pH of gastric juice was measured using Twin pH meter B-212 (Horiba, Ltd.).
The respective measurements values were calculated according to the equation below and T-assay was conducted.
Gastric acidity (mEq/l)=0.2N NaOH×consumed amount (μl)/gastric juice (1000 μl)
Total acid output (μEq/kg/h)=gastric acidity x gastric fluid volume/weight/time

pylorus ligated rats [2] = assay: Amount of gastrin secretion (blood gastrin level, RIA) in pylorus ligated rats; assay type: in vivo, rat; details: 2 mg/kg (2000 μg/kg group) intraperitoneally; blood 3 hours after pylorus ligature; vs saline group, 8 rats
Description: After Wistar male rats (340-360 g) were fasted for 16 hours with water given ad libitum as in EXAMPLE 2 above, the animal was exposed at laparotomy under ether anesthesia and submitted to the pylorus ligature assay to close the abdomen. After hNPW23 was dissolved in saline (2 mg/ml), the solution was intraperitoneally injected (2 mg/kg). The control group was given saline. Test was performed with 8 rats in each group. Three hours after the pylorus ligature, the rat's abdomen was opened under anesthesia with Nembutal (40 mg/kg) and blood was collected through the abdominal aorta. The blood was placed in a blood tube of 7 ml (Terumo, containing EDTA), centrifuged (3000 rpm×10 min.) and stored at −40° C in lyophilized state until assay. Gastrin level in blood was assayed with Gastrin RIA KIT II (ABBOTT JAPAN). The F-assay was conducted on mean measurement values.

hNPW23: human GPR8 ligand peptide (hNPW23), amino acid sequence SEQ ID NO: 1; Neuropeptide W (WYKHVASPRYHTVGRAAGLLMGL; listed as Homo sapiens)
changes in gastric acid outputs (gastric acid output after administration / before administration x 100) (Wistar male rats): 145.6±8.5% | Gastric acidity (pylorus ligated rats [1]): 96.0 ± 4.2 mEq/l | Gastric fluid volume (pylorus ligated rats [1]): 7.9 ± 1.2 mL | Intragastric pH (pylorus ligated rats [1]): 0.83 ± 0.03 | Total acid output (pylorus ligated rats [1]): 747.4 ± 121.5 μEq/kg/h | gastrin level in blood (pylorus ligated rats [2]): increased significantly
